Experimental data from PubChem BioAssay AID2060897 (Molecular Pharmacology Branch, DTP, NCI, 2025).

Tested on: 966289-007-R4-J1-PDC complex spheroid viability
Assay: Anticancer human tumor 966289-007-R4-J1-PDC patient-derived pancreatic adenocarcinoma cell line growth inhibition [RAS]
Details: for IC50: curve of first compound; for viability, T/C: stronger effect = lower value; active = viability on the fitted dose curve at most 10% of control; inactive = the rest
Summary of the method: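 Tumour cells grown as complex spheroids with HUVEC endothelial cells and mesenchymal stem cells, treated with RAS pathway inhibitor combinations. Each agent spans half-log steps from near clinical Cmax, or 10 microM where Cmax is unknown.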

[1] = second compound 0.00316 µM, first compound 0.0316 µM
[2] = second compound 0.00316 µM, first compound 0.1 µM
[3] = second compound 0.00316 µM, first compound 0.316 µM
[4] = second compound 0.00316 µM, first compound 1 µM
[5] = second compound 0.00316 µM, first compound 3.16 µM
[6] = second compound 0.00316 µM, first compound 10 µM
[7] = second compound 0.01 µM, first compound 0.0316 µM
[8] = second compound 0.01 µM, first compound 0.1 µM
[9] = second compound 0.01 µM, first compound 0.316 µM
[10] = second compound 0.01 µM, first compound 1 µM
[11] = second compound 0.01 µM, first compound 3.16 µM
[12] = second compound 0.01 µM, first compound 10 µM
[13] = second compound 0.0316 µM, first compound 0.0316 µM
[14] = second compound 0.0316 µM, first compound 0.1 µM
[15] = second compound 0.0316 µM, first compound 0.316 µM
[16] = second compound 0.0316 µM, first compound 1 µM
[17] = second compound 0.0316 µM, first compound 3.16 µM
[18] = second compound 0.0316 µM, first compound 10 µM
[19] = second compound 0.1 µM, first compound 0.0316 µM
[20] = second compound 0.1 µM, first compound 0.1 µM
[21] = second compound 0.1 µM, first compound 0.316 µM
[22] = second compound 0.1 µM, first compound 1 µM
[23] = second compound 0.1 µM, first compound 3.16 µM
[24] = second compound 0.1 µM, first compound 10 µM
[25] = second compound 0.316 µM, first compound 0.0316 µM
[26] = second compound 0.316 µM, first compound 0.1 µM
[27] = second compound 0.316 µM, first compound 0.316 µM
[28] = second compound 0.316 µM, first compound 1 µM
[29] = second compound 0.316 µM, first compound 3.16 µM
[30] = second compound 0.316 µM, first compound 10 µM
[31] = second compound 1 µM, first compound 0.0316 µM
[32] = second compound 1 µM, first compound 0.1 µM
[33] = second compound 1 µM, first compound 0.316 µM
[34] = second compound 1 µM, first compound 1 µM
[35] = second compound 1 µM, first compound 3.16 µM
[36] = second compound 1 µM, first compound 10 µM
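Also: spheroids exposed to agents for one week before readout.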
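For viability, T/C in this document: percent viability relative to DMSO vehicle control wells as 100%.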

CC1(O)CCCC1n1c(=O)c(C(F)F)cc2cnc(NC3CCN(S(C)(=O)=O)CC3)nc21 (centres undefined) + C=CC(=O)N1CCN(c2nc(OCC3CCCN3C)nc3c(F)c(-c4nc(N)cc(C)c4C(F)(F)F)c(Cl)cc23)C(C)C1
151 nM: IC50 (second compound 0.01 µM)
133 nM: IC50 (second compound 0.00316 µM)
154 nM: IC50 (second compound 0.316 µM)
125 nM: IC50 (second compound 1 µM)
inactive: viability, T/C [1] 130% | viability, T/C [2] 56.8% | viability, T/C [3] 25% | viability, T/C [4] 27% | viability, T/C [5] 29.8% | viability, T/C [6] 3.73% | viability, T/C [7] 138% | viability, T/C [8] 66.5% | viability, T/C [9] 21.4% | viability, T/C [10] 28.2% | viability, T/C [11] 26.4% | viability, T/C [12] 3.99% | viability, T/C [13] 129% | viability, T/C [14] 66.3% | viability, T/C [15] 26.9% | viability, T/C [16] 24.9% | viability, T/C [17] 26.2% | viability, T/C [18] 3.83% | viability, T/C [19] 121% | viability, T/C [20] 60% | viability, T/C [21] 28.8% | viability, T/C [22] 27.8% | viability, T/C [23] 27.9% | viability, T/C [24] 3.1% | viability, T/C [25] 117% | viability, T/C [26] 61.9% | viability, T/C [27] 25.1% | viability, T/C [28] 27.7% | viability, T/C [29] 23.1% | viability, T/C [30] 3.69% | viability, T/C [31] 123% | viability, T/C [32] 56.8% | viability, T/C [33] 21.2% | viability, T/C [34] 24% | viability, T/C [35] 22.8% | viability, T/C [36] 3.51%
156 nM: IC50 (second compound 0.1 µM)
171 nM: IC50 (second compound 0.0316 µM)

CCC(CC)c1cc(NC2CCC(N)C2)n2nccc2n1 (centres undefined) + C=CC(=O)N1CCN(c2nc(OCC3CCCN3C)nc3c(F)c(-c4nc(N)cc(C)c4C(F)(F)F)c(Cl)cc23)C(C)C1
1900 nM: IC50 (second compound 0.00316 µM)
1860 nM: IC50 (second compound 0.316 µM)
1880 nM: IC50 (second compound 0.1 µM)
inactive: viability, T/C [1] 104% | viability, T/C [2] 93.6% | viability, T/C [3] 112% | viability, T/C [4] 131% | viability, T/C [7] 99.5% | viability, T/C [8] 95.7% | viability, T/C [9] 101% | viability, T/C [10] 114% | viability, T/C [13] 92% | viability, T/C [14] 102% | viability, T/C [15] 103% | viability, T/C [16] 123% | viability, T/C [19] 103% | viability, T/C [20] 103% | viability, T/C [21] 111% | viability, T/C [22] 117% | viability, T/C [25] 103% | viability, T/C [26] 97.9% | viability, T/C [27] 98.8% | viability, T/C [28] 125% | viability, T/C [31] 91.4% | viability, T/C [32] 92.1% | viability, T/C [33] 119% | viability, T/C [34] 113%
1840 nM: IC50 (second compound 1 µM)
active: viability, T/C [5] 2.16% | viability, T/C [6] 2.13% | viability, T/C [11] 2.2% | viability, T/C [12] 2.15% | viability, T/C [17] 2.15% | viability, T/C [18] 1.75% | viability, T/C [23] 2.07% | viability, T/C [24] 2.09% | viability, T/C [29] 2.42% | viability, T/C [30] 2.33% | viability, T/C [35] 2.27% | viability, T/C [36] 2.77%
1830 nM: IC50 (second compound 0.01 µM)
1850 nM: IC50 (second compound 0.0316 µM)
